The source of these data is patent US10800789B2, “Antiviral compounds” (Gilead Pharmasset LLC, priority 2012, dated 2020).

Data set [1] concerns stable HCV 1b RLuc replicon cells (dicistronic genotype 1b Con1 replicon). As to the kind of experiment: Renilla luciferase HCV replicon reporter assay, genotype 1b. It is filed as cell-based. The settings on record: Hepatitis C virus, 72 h, stable 1b Con1 RLuc replicon cells, 72 hours; read-out: 1b. The gist of the method: (§1)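 Cells carrying the stable or transiently transfected (Huh-Lunet) dicistronic RLuc replicons received 3-fold serial compound dilutions from 10 mM DMSO stocks. After 72 h, cells were lysed and Renilla luciferase read. DMSO served as the no-inhibition control and ITMN-191 above 100×EC50 as the positive control; EC50 by non-linear regression.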

Data set [2] concerns stable HCV 1a RLuc replicon cells (dicistronic genotype 1a H77 replicon). As to the kind of experiment: Renilla luciferase HCV replicon reporter assay, genotype 1a. The settings on record: Hepatitis C virus, 72 h, stable 1a H77 RLuc replicon cells. It is filed as cell-based. The procedure, abridged:
as §1

The subject of data set [3] is stable HCV 2a JFH-1 Rluc replicon cells (L31 present in NS5A). As to the kind of experiment: Renilla luciferase HCV replicon reporter assay, genotype 2a JFH-1. It is filed as cell-based. The settings on record: Hepatitis C virus. The procedure, abridged: as §1
Data set [4] relates to NS5A chimeric genotype 2a JFH-1 replicon with genotype 2b MD2b-1 strain NS5A gene (M31 present). As to the kind of experiment: Replicon assay, genotype 2b NS5A chimera. Conditions: Hepatitis C virus. Type of data set: cell-based, HCV. The gist of the method: as §1
Data set [5] deals with NS5A chimeric genotype 1b Con1 replicon with genotype 3a S52 strain NS5A gene. As to the kind of experiment: Replicon assay, genotype 3a NS5A chimera. Type of data set: cell-based, HCV. Conditions: Hepatitis C virus.
The test system of data set [6] is NS5A chimeric genotype 1b Con1 replicon with genotype 4a ED43 strain NS5A gene. As to the kind of experiment: Replicon assay, genotype 4a NS5A chimera. Conditions: Hepatitis C virus. It is filed as cell-based, HCV.
The nature of data set [7]: IV and PO single dose pharmacokinetic studies in SD rats. Type of data set: in vivo, male Sprague-Dawley (SD) rats. Conditions: Sprague-Dawley, rat, plasma, male SD rats, PO 2 mg/kg vs IV infusion 1 mg/kg, read-out: Rat % F. The method, then:
IV and PO Single Dose Pharmacokinetic Studies in SD Rats:
The pharmacokinetics of selected compounds was characterized in male Sprague-Dawley (SD) rats (250-300g). In this study, two groups of naïve purebred SD rats (N=3 per group, fasted over night) received the selected compound either as an intravenous (IV) infusion (1 mg/kg over 30 minutes) via the jugular vein or by oral gavage (2 mg/kg). The intravenous (IV) dosing vehicle was 5% ethanol, 35% polyethylene glycol 400 (PEG 400) and 60% water pH 2.0. The oral dosing vehicle was 5% ethanol, 55% PEG 400 and 40% citrate buffer pH 2.2.
Serial blood samples (approximately 0.3 mL each) were collected from jugular vein or other suitable vein at specified time points. For the IV infusion group, the blood samples were collected predose and at 0.25, 0.48, 0.58, 0.75, 1.5, 3, 6, 8, 12 and 24 hours after the start of infusion. For the oral group, the blood samples were collected predose and at 0.25, 0.50, 1, 2, 4, 6, 8, 12 and 24 hours after dosing. The blood samples were collected into VacutainerγM tubes containing EDTA-K3 as the anti-coagulant and were centrifuged at approximately 4° C. to obtain plasma. The plasma samples were stored at −20° C. until analysis by LC/MS/MS.
A bioanalytical method utilizing high performance liquid chromatography coupled to tandem mass spectrometry (LC/MS/MS) was developed for analysis of the selected compound in rat plasma. Detection was performed using selected reaction monitoring (SRM); Ions representing the precursor (M+H)^+ species was selected in quadrupole 1 (Q1) and collided with argon gas in the collision cell (Q2) to generate specific product ion, which was subsequently monitored by quadrupole 3 (Q3). Standard curve and quality control samples were prepared in male rat plasma and processed in the same way as the test samples to generate quantitative data.
Pharmacokinetic parameters were generated using non-compartmental pharmacokinetic analysis (Phoenix WinNonlin, version 6.3). Values below the lower limit of quantification (LLOQ) were assigned a value of zero if predose and treated as missing thereafter. Area under the curve (AUC) was calculated using the linear trapezoidal rule. The oral bioavailability (% F) was determined by comparison of the area under the curve (AUC) of the compound and/or a metabolite generated in plasma following oral administration to that generated following intravenous administration.

Data set [8] has as its system Q30R in genotype 1a NS5A (1a Pi-Rluc replicon, Huh-7-derived cured-51 cells). As to the kind of experiment: Replicon assay against resistance mutant 1a Q30R. It is filed as cell-based, HCV. The settings on record: Hepatitis C virus. The gist of the method:
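Q30R introduced by site-directed mutagenesis into the 1a Pi-RLuc replicon; replicon RNA transiently transfected into cured-51 cells. Cells treated with 3-fold serially diluted compound for 72 h, then lysed and Renilla luciferase measured; EC50 by non-linear regression.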

Data set [9] concerns NS5A chimeric genotype 2a JFH-1 replicon with genotype 2a J6 strain NS5A gene (M31 present). As to the kind of experiment: Replicon assay, genotype 2a J6 NS5A chimera. It is filed as cell-based, HCV. Conditions: Hepatitis C virus. The procedure, abridged: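 72 h compound exposure (3-fold dilutions from 10 mM DMSO stocks) of replicon cells: stable dicistronic RLuc 1a H77, 1b Con1, 2a JFH-1 (NS5A L31); J6-NS5A chimera in JFH-1 (M31), transient in Huh-Lunet or stable. Renilla luciferase read-out, non-linear regression → EC50. DMSO negative control.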

The mark [10] stands for this setting: read-out: 2a JFH (nM), genotype 2a JFH-1 replicon (L31 in NS5A), stable cells.
The mark [11] stands for this setting: read-out: 2a JFH, stable 2a JFH-1 Rluc replicon cells, L31 in NS5A, activity range.
Setting [12] is: 2BS, read-out: 2b (s), stably replicating replicon cells (s), activity range.
The mark [13] stands for this setting: read-out: 2b (s) (nM), genotype 2b MD2b-1 NS5A chimeric replicon (M31), stably replicating replicon cells (s).
Where [14] appears, read: read-out: 3a (s) (nM), genotype 3a NS5A chimeric replicon, stable replicon cells (s).
[15] abbreviates: read-out: 3a (s), (s), activity range.
The mark [16] stands for this setting: read-out: 4a (s) (nM), genotype 4a NS5A chimeric replicon, stable replicon cells (s).
The mark [17] stands for this setting: read-out: 4a (s), (s), activity range.

Where two headings read alike, the source gives them in different places.

For the molecule `COC(=O)N[C@H](C(=O)N1[C@@H](C)CC[C@H]1c1ncc(-c2ccc3c(c2)COc2cc4c(ccc5nc([C@@H]6CC[C@H](C)N6C(=O)[C@@H](NC(=O)OC)[C@@H](C)OC(F)F)[nH]c54)cc2-3)[nH]1)C(C)C` [FM, Methyl {(2S)-1-[(2S,5S)-2-(5-{2-[(2S,5S)-1-{(2S,3R)-3-(difluoromethoxy)-2-[(methoxycarbonyl)amino]butanoyl}-5-methylpyrrolidin-2-yl]-1,11-dihydroisochromeno[4′,3′:6,7]naphtho[1,2-d]imidazol-9-yl}-1H-imidazol-2-yl)-5-methylpyrrolidin-1-yl]-3-methyl-1-oxobutan-2-yl}carbamate], the EC50 in data set [1] was 0.018 nM; in [2], 0.009 nM; in [2] (activity range), less than 0.1 nM; in data set [3] (setting [10]), 0.019 nM; in data set [3] (setting [11]), less than 0.1 nM; in [4] (setting [12]), 0.1 to 0.999 nM. Moreover, the EC50 is 0.259 nM in data set [4] (setting [13]); 0.061 nM in data set [5] (setting [14]); less than 0.1 nM in data set [5] (setting [15]); 0.007 nM in data set [6] (setting [16]); less than 0.1 nM in data set [6] (setting [17]). The bioavailability in data set [7] was determined as 22.7%.

Consider `CC[C@H]1CC[C@@H](c2nc3ccc4cc5c(cc4c3[nH]2)OCc2cc(-c3cnc([C@@H]4CC[C@H](C)N4C(=O)[C@@H](NC(=O)OC)C(C)C)[nH]3)ccc2-5)N1C(=O)[C@@H](NC(=O)OC)[C@@H](C)OC` [EP, Methyl {(2S,3R)-1-[(2S,5S)-2-ethyl-5-(9-{2-[(2S,5S)-1-{(2S)-[(methoxycarbonyl)amino]-3-methylbutanoyl}-5-methylpyrrolidin-2-yl]-1H-imidazol-5-yl}-1,11-dihydroisochromeno[4′,3′:6,7]naphtho[1,2-d]imidazol-2-yl)pyrrolidin-1-yl]-3-methoxy-1l-oxobutan-2-yl}carbamate], for which the EC50 in data set [1] was 0.024 nM; in [2], 0.014 nM; in [2] (activity range), less than 0.1 nM; in data set [3] (setting [10]), 0.013 nM; in data set [3] (setting [11]), less than 0.1 nM; in [4] (setting [12]) it was 0.1 to 0.999 nM. Moreover, the EC50 was 0.213 nM in [4] (setting [13]), 0.115 nM in data set [5] (setting [14]) and 0.1 to 0.999 nM in [5] (setting [15]). For the same molecule, in data set [7], the bioavailability came to 17.5%.

As for `CC[C@H]1CC[C@@H](c2nc3ccc4cc5c(cc4c3[nH]2)OCc2cc(-c3cnc([C@@H]4CC[C@H](C)N4C(=O)[C@@H](NC(=O)OC)[C@@H](C)CC)[nH]3)ccc2-5)N1C(=O)[C@@H](NC(=O)OC)C1CCOCC1` [IK], the EC50 in data set [1] was 0.038 nM; in [2], 0.039 nM; in [2] (activity range), less than 0.1 nM; in data set [3] (setting [10]) it was 0.015 nM; in [3] (setting [11]), less than 0.1 nM; in data set [4] (setting [12]) it was 0.1 to 0.999 nM. The EC50 was 0.181 nM in data set [4] (setting [13]); 0.155 nM in data set [5] (setting [14]); 0.1 to 0.999 nM in data set [5] (setting [15]); 0.042 nM in data set [6] (setting [16]); less than 0.1 nM in data set [6] (setting [17]). Besides, the bioavailability in data set [7] is 27.4%.

As to `CC[C@H](C)[C@H](NC(=O)OC)C(=O)N1[C@@H](C)CC[C@H]1c1ncc(-c2ccc3c(c2)COc2cc4c(ccc5nc([C@@H]6CC[C@H](C)N6C(=O)[C@@H](NC(=O)OC)[C@@H](C)OC)[nH]c54)cc2-3)[nH]1` [GF, Methyl {(2S,3S)-1-[(2S,5S)-2-(5-{2-[(2S,5S)-1-{(2S,3R)-3-methoxy-2-[(methoxycarbonyl)amino]butanoyl}-5-methylpyrrolidin-2-yl]-1,11-dihydroisochromeno[4′,3′:6,7]naphtho[1,2-d]imidazol-9-yl}-1H-imidazol-2-yl)-5-methylpyrrolidin-1-yl]-3-methyl-1-oxopentan-2-yl}carbamate], the EC50 in data set [1] is 0.015 nM; in [2], 0.007 nM; in data set [2] (activity range), less than 0.1 nM; in [3] (setting [10]), 0.018 nM; in data set [3] (setting [11]) it was less than 0.1 nM; in data set [4] (setting [12]) it was 0.1 to 0.999 nM. For the same molecule, the EC50 is 0.203 nM in data set [4] (setting [13]); 0.027 nM in data set [5] (setting [14]); less than 0.1 nM in [5] (setting [15]); 0.011 nM in data set [6] (setting [16]); less than 0.1 nM in data set [6] (setting [17]). The bioavailability in data set [7] came out at 15.6%.

For the molecule `COC(=O)N[C@H](C(=O)N1[C@@H](C)CC[C@H]1c1ncc(-c2ccc3c(c2)COc2cc4c(ccc5nc([C@@H]6CC[C@H](C)N6C(=O)[C@H](NC(=O)OC)c6ccccc6)[nH]c54)cc2-3)[nH]1)C(C)C` [FB, Methyl {(1R)-2-[(2S,5S)-2-(9-{2-[(2S,5S)-1-{(2S)-2-[(methoxycarbonyl)amino]-3-methylbutanoyl}-5-methylpyrrolidin-2-yl]-1H-imidazol-5-yl}-1,11-dihydroisochromeno[4′,3′:6,7]naphtho[1,2-d]imidazol-2-yl)-5-methylpyrrolidin-1-yl]-2-oxo-1-phenylethyl}carbamate], the EC50 in data set [1] is 0.014 nM; in data set [2], 0.009 nM; in [2] (activity range) it was less than 0.1 nM; in data set [8] (read-out: 1a Q30R) it was less than 0.1 nM; in data set [8] (read-out: 1a Q30R (nM)), 0.077 nM; in data set [3] (setting [10]) it was 0.013 nM. In addition, the EC50 in [3] (setting [11]) is less than 0.1 nM; in [9] (read-out: 2a J6 (t) (nM), genotype 2a J6 NS5A chimeric replicon (M31), transiently transfected (t) into Huh-Lunet cells), 0.105 nM; in data set [9] (read-out: 2a J6 (t), transiently transfected (t) into Huh-Lunet cells, activity range), 0.1 to 0.999 nM; in data set [4] (setting [12]), less than 0.1 nM; in [4] (setting [13]), 0.081 nM; in [5] (setting [14]), 0.026 nM. For the same molecule, the EC50 in data set [5] (setting [15]) is less than 0.1 nM; in data set [6] (setting [16]), 0.01 nM; in data set [6] (setting [17]) it was less than 0.1 nM.
